From patent US20240117402A1, “METHODS FOR (POLY) PEPTIDE TANDEM LIGATION AND CYCLIZATION” (Nanyang Technological University, priority 2021, published 2024)
Read-outs that look alike come from different tables or passages of the source. One block for each molecule: values may come before it. Where a SMILES comes first, the peptide text is derived from it. Where no end group is shown, it is not given here.

How the values were obtained:
[1] = system: EGFR-overexpressing A431 cells; experiment: Fluorescence microscopy cell binding/staining, A431; assay type: cell-based; settings: A431, 30-min treatment
MCF-7 cells [2] = experiment: Fluorescence microscopy cell binding/staining, MCF-7; assay type: cell-based; settings: MCF-7, 30-min treatment
MCF-7 cells [3] = experiment: MTT cell viability assay, MCF-7; assay type: cell-based
Water solubility = assay type: physicochemical
A431 cells = experiment: MTT cell viability assay, A431; assay type: cell-based
OaAEP1b = experiment: OaAEP1b-catalyzed peptide cyclization (substrate screen, pH scan, kinetics); assay type: biochemical; settings: for Km / kcat: cyclization
Protocol: (§1) FIG. 9. Screening of P1′-Asp peptides for cyclization by A) VyPAL2, B) butelase-1 and C) OaAEP1b. Quantitative summary of reaction yields of the reaction mixtures. For each reaction, 25 nM of the enzyme and 5 μM of the peptide substrate (21a-21i) were mixed and reacted at pH 4.5, 25° C. for 60 min. The positive control peptide 21j was performed at the same conditions except at pH 7.4. Average yields and SDs were calculated from experiments performed in triplicate. The amino acid sequence of the peptides used are set forth in SEQ ID Nos. 15-24.
(§2) FIG. 10. Ligation activity of three different ligases under different pH and substrate. Cyclization activity of A) VyPAL2, B) Butelase-1 or C) OaAEP1b towards substrate 21e-DSL and 21j-NGL; Fold difference was calculated using the cyclization rate of 21j-NGL divided by that of 21e-DSL. All the results were the average reaction rate at different pH in triplicate experiments based on MALDI-TOF analysis. Light grey text in the “Fold difference” axis marks to the maximum fold difference.
(§3) FIG. 11. Enzymatic activity of three different ligases on the cyclization reaction of P1-Asp peptide 21e-DSL or 21a-DGL and P1-Asn-peptide 21j-NGL. A) Scheme of PAL-mediated P1-Asp peptide cyclization; B) Enzymatic kinetics of VyPAL2 in cyclizing 21e-DSL at pH 4.5; C) Enzymatic kinetics of VyPAL2 in cyclizing 21e-DSL at pH 7.0; D) Enzymatic kinetics of OaAEP1b in cyclizing 21a-DGL at pH 5.5; E) Enzymatic kinetics of Butelase-1 in cyclizing 21e-DSL at pH 4.5. F) Scheme of PAL-mediated cyclization of peptide 21j-NGL; G). Enzymatic kinetics of butelase-1 in cyclizing […] at pH 4.5; H)
(§4) Enzymatic kinetics of VyPAL2 in cyclizing 21j-NSL at pH 4.5; I) Enzymatic kinetics of butelase-1 in cyclizing 21j-NSL at pH 7.4; J) Enzymatic kinetics of OaAEP1b in cyclizing 21j-NSL at pH 7.0. Sequences of peptides used are set forth in SEQ ID Nos. 15, 19, 24.
(§5) PALs recognize a tripeptide motif Asx-P1′-P2′ in the acyl donor substrate for their catalyzed ligation reactions. Because the formation of the acyl-enzyme thioester intermediate is the rate-limiting step, the leaving group P1′-P2′ also plays an important role in determining the catalytic kinetics of a particular 40 PAL-mediated reaction. Previous studies have determined Leu as a preferred P2′ residue. To identify the most favorable P1′ residues for PAL-catalyzed Asp-ligation, a panel of peptides (peptide 21a-21j) with C-terminal DXL and N-terminal GI motifs was synthesized and cyclization reactions performed. Peptide 21j with a C-terminal NGL, a P1-Asn peptide favored by VyPAL2, was used for comparison with the P1-Asp peptides 21a-21i. […] Meanwhile, the P1′ substrate specificities of the two other ligases - Butelase-1 and OaAEP1b - were also evaluated by using the same substrates 21a-21j.
(§6) A pH scan experiment with the other two ligases: butelase-1 and OaAEP1 b, for their cyclase activity on 21e and 21j was also conducted. […] In fact, the difference in reaction efficiency between 21j and 21e was about 950 times at pH 7.4 (FIG. 10). […] This makes VyPAL2 a more efficient ligase than butelase-1 for Asp-mediated protein modification.
It seems that the microenvironment within the 51 pocket of OaAEP1 b has a unique ability to maintain the γCOOH of P1-Asp in the protonated form. However, for OaAEP1b-catalyzed cyclization, the difference in reactivity between 21j and 21e at pH 4.0-7.4 was not very high. The biggest difference was 9.5 folds at pH 7.4. […]

butelase-1 = experiment: Butelase-1-catalyzed peptide cyclization (substrate screen, pH scan, kinetics); assay type: biochemical; settings: for Km / kcat: Butelase-1, cyclization
Protocol: as §1, §2, §3, §4, §5, §6

VyPAL2 = experiment: VyPAL2-catalyzed peptide cyclization (substrate screen, pH scan, kinetics); assay type: biochemical, Viola yedoensis
Protocol: as §1, §2, §3, §4, §5
scanning experiment using the two peptides 21e and 21j was performed. Cyclization reactions were conducted by mixing 5 μM of peptide 21e or 50 μM of 21j with 25 nM of VyPAL2 over a pH range of 4.0 to 7.4. Results confirmed that the optimum pH for the cyclization of the P1-Asn peptide 21j was 6.5-7.4. But for the P1-Asp peptide 21e (which has the C-terminal DSL tripeptide), the optimum pH was 4.0-4.5.
It is worth noting that, at pH 7.4, VyPAL2 processed peptide 21j for cyclization at a rate that is >1000 folds faster than processing peptide 21e (FIG. 10). This enormous difference of reactivity essentially established the orthogonality for ligation at Asn in the presence of aspartyl bonds.

[4] = target: T1, Peptide 21a (SEQ ID NO:15), GISTKSIPPISYRDGL
T1 chain: GISTKSIPPISYRDGL

[5] = target: T2, Peptide 21j (SEQ ID NO:24), GISTKSIPPISYRNGL
T2 chain: GISTKSIPPISYRNGL

[6] = cyclization of a model peptide; cited from earlier work

Chain of butelase-1 (as listed by the source): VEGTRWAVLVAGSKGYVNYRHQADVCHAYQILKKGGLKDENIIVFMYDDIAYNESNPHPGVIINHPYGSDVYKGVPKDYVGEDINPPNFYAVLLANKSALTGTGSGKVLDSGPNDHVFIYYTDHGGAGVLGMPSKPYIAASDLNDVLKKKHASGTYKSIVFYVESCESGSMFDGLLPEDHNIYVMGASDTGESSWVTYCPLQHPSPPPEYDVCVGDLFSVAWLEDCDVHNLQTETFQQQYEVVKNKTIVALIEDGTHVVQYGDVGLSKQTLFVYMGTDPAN

- Km (OaAEP1b; pH 5.5): 35.1 ± 5.9 µM
Molecule: GISTKSIPPISYRDGL (GISTKSIPPISYRDGL-NH2) [Peptide 21a]
- kcat (OaAEP1b; pH 5.5): 5.9 ± 0.7 s⁻¹

- Km (OaAEP1b; pH 7.0): 25.3 ± 2.5 µM
- Km (butelase-1; pH 4.5): 12.7 ± 2.1 µM
- kcat (butelase-1; pH 4.5): 0.6 ± 0.05 s⁻¹
- Km (butelase-1; pH 7.4): 13.5 ± 1.5 µM
- kcat (butelase-1; pH 7.4): 9.4 ± 0.3 s⁻¹
- difference in reaction efficiency between 21j and 21e (butelase-1; butelase-1, pH 7.4): about 950 times
- Km (VyPAL2; VyPAL2, cyclization, pH 4.5): 28.4 ± 4.1 µM
- Km (VyPAL2; VyPAL2, cyclization, pH 7.4): 25.8 ± 1.7 µM
Molecule: GISTKSIPPISYRNGL (GISTKSIPPISYRNGL-NH2) [Peptide 21j]
- kcat (OaAEP1b; pH 7.0): 5.5 ± 0.3 s⁻¹
- difference in reactivity between 21j and 21e (biggest) (OaAEP1b; pH 7.4): 9.5 folds
- optimum pH for cyclization (VyPAL2; 25 nM VyPAL2, pH range 4.0 to 7.4, 5 μM 21e or 50 μM 21j): 6.5-7.4
- kcat (VyPAL2; VyPAL2, cyclization, pH 4.5): 1.9 ± 0.18 s⁻¹
- Vmax (VyPAL2; VyPAL2, cyclization, pH 7.4): 5.633 µM/min
- kcat (VyPAL2; VyPAL2, cyclization, pH 7.4): 5.5 ± 0.4 s⁻¹
- fold difference, cyclization rate of 21j versus 21e (VyPAL2; VyPAL2, pH 7.4): > 1000 folds

The next lines start with the molecule.

Molecule: COc1cccc2c1C(=O)c1c(O)c3c(c(O)c1C2=O)C[C@@](O)(C(=O)CO)C[C@@H]3O[C@H]1C[C@H](N)[C@H](O)[C@H](C)O1 [Dox, doxorubicin]
- cell staining (confocal) ([1]; 10 μM): stained
- cell staining ([1]; 2 μM 20, 10 μM DOX): stained
- cell staining (confocal) (MCF-7 cells [2]; 10 μM): stained
- cell staining (MCF-7 cells [2]; 2 μM 20, 10 μM DOX): stained
- IC50 (MCF-7 cells [3]; Homo sapiens, MCF7, MCF-7, 36 h, MTT, read-out: IC50): 1000 ± 20 nM
- IC50 (MCF-7 cells [3]; Homo sapiens, MCF7, MCF-7, 96 h, MTT, read-out: IC50): 1600 ± 230 nM
- water solubility (Water solubility): poorly soluble in water
- IC50 (A431 cells; Homo sapiens, A-431, A431, 36 h, MTT, read-out: IC50): 1.3 ± 0.04 µM
- IC50 (A431 cells; Homo sapiens, A-431, A431, 96 h, MTT, read-out: IC50): 1.22 ± 0.15 µM

Molecule: CC[C@H](C)[C@H](NC(=O)CN)C(=O)NCC(=O)NCC(=O)N[C@@H](Cc1ccccc1)C(=O)N[C@@H](CCCCN)C(=O)NCC(=O)NCC(=O)N[C@H](CCCCN)C(=O)N[C@H](CC(C)C)C(=O)N[C@H](C)C(=O)N[C@H](CCCCN)C(=O)N[C@H](CC(C)C)C(=O)N[C@H](C)C(=O)N[C@H](CCCCN)C(=O)N[C@H](CCCCN)C(=O)N[C@H](CC(C)C)C(=O)N[C@H](C)C(=O)N[C@H](CCCCN)C(=O)N[C@H](CC(C)C)C(=O)N[C@H](C)C(=O)N[C@H](CCCCN)C(N)=O [Peptide 11] (HELM PEPTIDE1{G.I.G.G.F.K.G.G.[dK].[dL].[dA].[dK].[dL].[dA].[dK].[dK].[dL].[dA].[dK].[dL].[dA].[dK].[am]}$$$$V2.0; N-terminus assumed)
- IC50 (MCF-7 cells [3]; 84 h): ~480000 nM
- IC50 (A431 cells; 84 h): ~1300 µM

B1: OaAEP1b (SEQ ID NO:44) (protein)
chain: SVGTRWAVLIAGSKGYANYRHQAGVCHAYQILKRGGLKDENIVVFMYDDIAYNESNPRPGVIINSPHGSDVYAGVPKDYTGEEVNAKNFLAAILGNKSAITGGSGKVVDSGPNDHIFIYYTDHGAAGVIGMPSKPYLYADELNDALKKKHASGTYKSLVFYLEACESGSMFEGILPEDLNIYALTSTNTTESSWAYYCPAQENPPPPEYNVCLGDLFSVAWLEDSDVQNSWYETLNQQYHHVDKRISHASHATQYGNLKLGEEGLFVYMGSNPANDNYTSLDGNALTPSSIVVNQRDAD
- Km, cyclization at pH 5.5 [4]: 35.1 µM
- kcat, cyclization at pH 5.5 [4]: 5.9 s⁻¹
- kcat/Km, cyclization at pH 5.5 [4]: 172000 ± 9250 M^-1s^-1
- Km, cyclization at pH 7.0 [5]: 25.3 µM
- kcat, cyclization at pH 7.0 [5]: 5.5 s⁻¹
- kcat/Km, cyclization at pH 7.0 [5]: 211000 ± 8260 M^-1s^-1

B2: VyPAL2: plant legumain from the Viola Yedoensis family, highly active peptidyl asparaginyl ligase (SEQ ID NO:1) (protein)
chain: DSIGTRWAVLIAGSKGYHNYRHQADVCHMYQILRKGGVKDENIIVFMYDDIAYNESNPFPGIIINKPGGENVYKGVPKDYTGEDINNVNFLAAILGNKSAIIGGSGKVLDTSPNDHIFIYYADHGAPGKIGMPSKPYLYADDLVDTLKQKAATGTYKSMVFYVEACNAGSMFEGLLPEGTNIYAMAASNSTEGSWITYCPGTPDFPPEFDVCLGDLWSITFLEDCDAHNLRTETVHQQFELVKKKIAYASTVSQYGDIPISKDSLSVYM
modifications: VyPAL2 core domain
- catalytic efficiency [6]: 274,325 M^−1 s^−1
